# Measurements from PMC8217170, “Phase Ib dose-escalation study of the hypoxia-modifier Myo-inositol trispyrophosphate in patients with hepatopancreatobiliary tumors” (Nature Communications, 2021).
# Several values for one entry are separate records, joined by “and”; a condition that tells them apart may be missing. Identical values can stand only once.
# Assay: Plasma levels and pharmacokinetics of intravenous ITPP
# [1] = individual patients, cohort 1 (1866 mg/m2)
# [2] = individual patients, cohort 2 (3732 mg/m2)
compound,measurement,setting,value
"O=P1(O)OC2C3OP(=O)(O)OP(=O)(O)OC3C3OP(=O)(O)OP(=O)(O)OC3C2OP(=O)(O)O1 (centres unmarked) [ITPP, Myo-inositol trispyrophosphate]",ITPP plasma levels: Concentration,"cohort 2, patient 7, day 2, hour 0, sample 8_2_1",0 µg/mL
same,"ITPP plasma levels, Concentration","cohort 2, patient 7, day 2, hour 9",98.6 µg/mL
same,"ITPP plasma levels, Concentration","cohort 2, patient 7, day 3, hour 0",0 µg/mL
same,"ITPP plasma levels, Concentration","cohort 2, patient 7, day 3, hour 9",93.7 µg/mL
same,AUC,"cohort 3, 5600 mg/m2",1168.7 µg·h/mL
same,AUMC,"cohort 3, 5600 mg/m2",6445.9 h2*mg/L
same,CL,"cohort 3, 5600 mg/m2",4.4 L/h
same,Clast,"cohort 3, 5600 mg/m2",59.5 µg/mL
same,Cmax,"cohort 3, 5600 mg/m2",153.4 µg/mL
same,Cmin,"cohort 3, 5600 mg/m2",0 ng/mL
same,Elimination rate λz,"cohort 3, 5600 mg/m2",0.5 h⁻¹
same,Half life/T0.5,"cohort 3, 5600 mg/m2",1.4 h
same,MRT,"cohort 3, 5600 mg/m2",1.5 h
same,Tlast,"cohort 3, 5600 mg/m2",10.0 h
same,Tmax,"cohort 3, 5600 mg/m2",6.0 h
same,VSS,"cohort 3, 5600 mg/m2",9.2 L
same,AUC,"cohort 4, 7000 mg/m2",1649.5 µg·h/mL
same,AUMC,"cohort 4, 7000 mg/m2",9421.8 h2*mg/L
same,CL,"cohort 4, 7000 mg/m2",3.1 L/h
same,Clast,"cohort 4, 7000 mg/m2",127.5 µg/mL
same,Cmax,"cohort 4, 7000 mg/m2",228.0 µg/mL
same,Cmin,"cohort 4, 7000 mg/m2",0 ng/mL
same,Elimination rate λz,"cohort 4, 7000 mg/m2",0.2 h⁻¹
same,Half life/T0.5,"cohort 4, 7000 mg/m2",3.3 h
same,MRT,"cohort 4, 7000 mg/m2",1.7 h
same,Tlast,"cohort 4, 7000 mg/m2",10.0 h
same,Tmax,"cohort 4, 7000 mg/m2",6.0 h
same,VSS,"cohort 4, 7000 mg/m2",12.8 L
same,AUC,"cohort 5, 8750 mg/m2",1850.5 µg·h/mL
same,AUMC,"cohort 5, 8750 mg/m2",10396.4 h2*mg/L
same,CL,"cohort 5, 8750 mg/m2",4.0 L/h
same,Clast,"cohort 5, 8750 mg/m2",116.8 µg/mL
same,Cmax,"cohort 5, 8750 mg/m2",257.8 µg/mL
same,Cmin,"cohort 5, 8750 mg/m2",0 ng/mL
same,Elimination rate λz,"cohort 5, 8750 mg/m2",0.3 h⁻¹
same,Half life/T0.5,"cohort 5, 8750 mg/m2",2.1 h
same,MRT,"cohort 5, 8750 mg/m2",1.6 h
same,Tlast,"cohort 5, 8750 mg/m2",10.0 h
same,Tmax,"cohort 5, 8750 mg/m2",6.0 h
same,VSS,"cohort 5, 8750 mg/m2",11.1 L
same,AUC,"cohort 6, 10500 mg/m2",2439.2 µg·h/mL
same,AUMC,"cohort 6, 10500 mg/m2",13886.7 h2*mg/L
same,CL,"cohort 6, 10500 mg/m2",3.3 L/h
same,Clast,"cohort 6, 10500 mg/m2",186.4 µg/mL
same,Cmax,"cohort 6, 10500 mg/m2",313.4 µg/mL
same,Cmin,"cohort 6, 10500 mg/m2",0 ng/mL
same,Elimination rate λz,"cohort 6, 10500 mg/m2",0.3 h⁻¹
same,Half life/T0.5,"cohort 6, 10500 mg/m2",2.6 h
same,MRT,"cohort 6, 10500 mg/m2",1.7 h
same,Tlast,"cohort 6, 10500 mg/m2",10.0 h
same,Tmax,"cohort 6, 10500 mg/m2",6.0 h
same,VSS,"cohort 6, 10500 mg/m2",11.7 L
same,AUC,"cohort 7, 12390 mg/m2",2457.2 µg·h/mL
same,AUMC,"cohort 7, 12390 mg/m2",14095.2 h2*mg/L
same,CL,"cohort 7, 12390 mg/m2",4.4 L/h
same,Clast,"cohort 7, 12390 mg/m2",149.4 µg/mL
same,Cmax,"cohort 7, 12390 mg/m2",353.6 µg/mL
same,Cmin,"cohort 7, 12390 mg/m2",0 ng/mL
same,Elimination rate λz,"cohort 7, 12390 mg/m2",0.4 h⁻¹
same,Half life/T0.5,"cohort 7, 12390 mg/m2",1.7 h
same,MRT,"cohort 7, 12390 mg/m2",1.7 h
same,Tlast,"cohort 7, 12390 mg/m2",10.0 h
same,Tmax,"cohort 7, 12390 mg/m2",6.0 h
same,VSS,"cohort 7, 12390 mg/m2",11.4 L
same,AUC,"cohort 8, 14500 mg/m2",2864.1 µg·h/mL
same,AUMC,"cohort 8, 14500 mg/m2",16280.4 h2*mg/L
same,CL,"cohort 8, 14500 mg/m2",4.4 L/h
same,Clast,"cohort 8, 14500 mg/m2",166.0 µg/mL
same,Cmax,"cohort 8, 14500 mg/m2",439.2 µg/mL
same,Cmin,"cohort 8, 14500 mg/m2",0 ng/mL
same,Elimination rate λz,"cohort 8, 14500 mg/m2",0.4 h⁻¹
same,Half life/T0.5,"cohort 8, 14500 mg/m2",1.8 h
same,MRT,"cohort 8, 14500 mg/m2",1.7 h
same,Tlast,"cohort 8, 14500 mg/m2",10.0 h
same,Tmax,"cohort 8, 14500 mg/m2",6.0 h
same,VSS,"cohort 8, 14500 mg/m2",11.4 L
same,AUCTmax,[1],338.2 µg·h/mL and 372.1 µg·h/mL and 311.3 µg·h/mL and 349.1 µg·h/mL
same,AUC∞,[1],366.8 µg·h/mL
same,AUC∞ / Dose,[1],0.2 mg·h/L/mg
same,AUMCTmax,[1],1863.8 h2*mg/L and 2050.4 h2*mg/L and 1825.7 h2*mg/L and 1904.2 h2*mg/L
same,AUMC∞,[1],2201.9 h2*mg/L
same,CLO,[1],5.1 L/h
same,Clast,[1],15.7 µg/mL and 46.6 µg/mL and 22.8 µg/mL and 33.9 µg/mL
same,Cmax,[1],45.8 µg/mL and 54.7 µg/mL and 55.3 µg/mL and 42.2 µg/mL
same,Cmax / Dose,[1],0.0 mg/L/mg
same,Cmin,[1],0 ng/mL
same,Elimination rate λz,[1],0.5 h⁻¹
same,Half-life / T0.5,[1],1.3 h
same,MRTTmax,[1],1.5 h (3×) and 1.9 h
same,MRT∞,[1],2.0 h
same,Tlast,[1],10 h (3×) and 9 h
same,Tmax,[1],6.0 h (3×) and 8.5 h
same,VSSO,[1],10.2 L
same,VZO,[1],9.3 L
same,AUCTmax,[2],745.9 µg·h/mL and 761.5 µg·h/mL and 1032.3 µg·h/mL
same,AUC∞,[2],826.4 µg·h/mL and 896.6 µg·h/mL and 1215.3 µg·h/mL
same,AUC∞ / Dose,[2],0.2 h*mg/L/mg (2×) and 0.3 h*mg/L/mg
same,AUMCTmax,[2],4278.4 h2*mg/L and 4442.2 h2*mg/L and 6030.7 h2*mg/L
same,AUMC∞,[2],5242.1 h2*mg/L and 6142.5 h2*mg/L and 8341.9 h2*mg/L
same,CLO,[2],4.5 L/h and 4.2 L/h and 3.1 L/h
same,Clast,[2],40.6 µg/mL and 52.1 µg/mL and 69.7 µg/mL
same,Cmax,[2],106.3 µg/mL and 106.7 µg/mL and 148.7 µg/mL
same,Cmax / Dose,[2],0.0 mg/L/mg
same,Cmin,[2],0 ng/mL
same,Elimination rate λz,[2],0.5 /h and 0.4 /h (2×)
same,Half-life / T0.5,[2],1.4 h and 1.8 h (2×)
same,MRTTmax,[2],1.7 h and 1.8 h (2×)
same,MRT∞,[2],2.3 h and 2.9 h (2×)
same,Tlast,[2],10 h
same,Tmax,[2],6.0 h
